Source: US9487553B2, “Boranophosphate analogues of cyclic nucleotides” (BIOLOG LIFE SCIENCE INSTITUTE FORSCHUNGSLABOR UND …, priority 2011, dated 2016)

How the values were obtained:
[1] = Degradation Example 1: oxidation with hydrogen peroxide, monitored by HPLC; assay type: physicochemical; conditions: after further addition of 10 μl of 30% H2O2, two hours at RT
Description: In order to check out the stability of the boranophosphates described in this invention towards oxidising conditions in comparison to the corresponding phosphorothioates, 0.1 μmol of the sodium salts of each, Rp-8-bromoadenosine-3′,5′-cyclic boranophosphate (Rp-8-Br-cAMPB, example 1), Sp-8-bromoadenosine-3′,5′-cyclic boranophosphate (Sp-8-Br-cAMPB, example 2), Rp-8-bromoadenosine-3′,5′-cyclic phosphorothioate (Rp-8-Br-cAMPS, Biolog) and Sp-8-bromoadenosine-3′,5′-cyclic phosphorothioate (Sp-8-Br-cAMPS, Biolog) were dissolved in 100 μl of eluent and the mixture was analyzed by HPLC (RP-18, 11% acetonitrile, 20 mM triethylammonium formate buffer, pH 6.1, 1.5 ml/min, UV 258 nm). The following elution profile was recorded: Rp-8-Br-cAMPS (5:13 min.)<Sp-8-Br-cAMPS (7:23 min.)<Sp-8-Br-cAMPB (9:13 min.)<Rp-8-Br-cAMPB ([…].).
Subsequently, aqueous hydrogen peroxide (Merck) was added in small portions while the stability of the four compounds was permanently monitored over time.
10 μl of H2O2 (0.3%) as well as 10 μl of 3% H2O2 were added to no effect.

PDE 1 from bovine heart = test: Resistance towards phosphodiesterase: incubation with PDE 1 from bovine heart, HPLC
Experimental: For this purpose 0.1 μmol of Rp-8-bromoadenosine-3′,5′-cyclic boranophosphate (example 1) and Sp-8-bromoadenosine-3′,5′-cyclic boranophosphate […] dissolved in TRIS buffer pH 7.2 containing calcium chloride and calmodulin and incubated with PDE type I from bovine brain (Sigma-Aldrich) at 37° C. Activity of the enzyme was checked by hydrolysis of cyclic AMP. Stability was monitored by HPLC (RP-18, 11 Vol.-% propanol-2, 20 mM TEAF buffer, pH 6.8, 1 ml/min., UV 264 nm). […] This strategy of testing PDE performance was applied accordingly in degradation examples 10 and 11.
Thus, Rp-8-Br-cAMPB (example 1) and Sp-8-Br-cAMPS (Biolog, Bremen/Germany) were incubated with PDE 1 from bovine heart (Sigma-Aldrich) and monitored by HPLC as described above.
Rp-2′-O-Me-cAMPB (example 7) and Sp-2′-O-Me-cAMPS (Biolog, Bremen/Germany).

PDE IV (A4B) = target: T1, PDE IV (A4B) (Homo sapiens, UniProt P27815); test: Stability against PDE IV, HPLC; assay type: in vitro ADME; conditions: several days
T1 construct: Houslay lab, Glasgow/Scotland (obtained from another laboratory)
T1 sequence (P27815 whole entry): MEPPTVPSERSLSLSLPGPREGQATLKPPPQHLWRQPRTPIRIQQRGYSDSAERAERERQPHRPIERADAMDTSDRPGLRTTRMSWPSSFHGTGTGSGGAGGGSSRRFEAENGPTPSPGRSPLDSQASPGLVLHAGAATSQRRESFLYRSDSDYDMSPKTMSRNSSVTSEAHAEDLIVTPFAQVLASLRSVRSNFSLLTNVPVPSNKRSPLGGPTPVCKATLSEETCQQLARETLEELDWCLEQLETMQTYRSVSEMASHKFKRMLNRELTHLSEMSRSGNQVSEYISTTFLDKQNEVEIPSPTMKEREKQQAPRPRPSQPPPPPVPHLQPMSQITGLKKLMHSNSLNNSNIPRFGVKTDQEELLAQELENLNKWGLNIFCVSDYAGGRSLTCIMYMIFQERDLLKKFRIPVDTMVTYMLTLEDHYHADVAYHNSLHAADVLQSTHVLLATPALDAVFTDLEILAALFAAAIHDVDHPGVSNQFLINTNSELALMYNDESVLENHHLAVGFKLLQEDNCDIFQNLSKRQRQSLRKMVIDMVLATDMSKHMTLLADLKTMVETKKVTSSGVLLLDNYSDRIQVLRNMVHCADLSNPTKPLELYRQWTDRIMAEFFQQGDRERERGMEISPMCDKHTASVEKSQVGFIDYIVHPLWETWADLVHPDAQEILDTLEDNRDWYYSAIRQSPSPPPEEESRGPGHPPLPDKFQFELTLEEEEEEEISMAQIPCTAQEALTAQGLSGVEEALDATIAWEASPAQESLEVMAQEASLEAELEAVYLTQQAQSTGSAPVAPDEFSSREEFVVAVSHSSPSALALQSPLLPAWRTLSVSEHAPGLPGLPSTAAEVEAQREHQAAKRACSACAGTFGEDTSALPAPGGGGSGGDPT
Experimental: Next, stability of the disclosed boranophosphates against PDE IV (A4B, Houslay lab, Glasgow/Scotland) was tested in similar experiments as described above.

[2] = target: protein kinase A type I alpha holoenzyme (Homo sapiens, UniProt P10644); test: Standard photometric (Cook) assay with protein kinase A type I alpha holoenzyme; assay type: biochemical; conditions: holoenzyme RIα
Sequence of protein kinase A type I alpha holoenzyme (P10644 whole entry): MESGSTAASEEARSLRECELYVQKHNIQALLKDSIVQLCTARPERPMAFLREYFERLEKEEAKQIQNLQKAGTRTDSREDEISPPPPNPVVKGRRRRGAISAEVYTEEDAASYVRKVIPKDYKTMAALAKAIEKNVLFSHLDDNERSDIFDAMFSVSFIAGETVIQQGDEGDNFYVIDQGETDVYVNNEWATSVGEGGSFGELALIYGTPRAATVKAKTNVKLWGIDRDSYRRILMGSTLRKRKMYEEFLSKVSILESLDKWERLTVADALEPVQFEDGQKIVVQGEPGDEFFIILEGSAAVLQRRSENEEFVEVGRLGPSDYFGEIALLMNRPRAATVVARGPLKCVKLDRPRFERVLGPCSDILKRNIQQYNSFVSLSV
Description: In a first experiment, the biological activity of the Rp- and Sp-isomer of 8-bromoadenosine-3′,5′-cyclic boranophosphate (examples 1 and 2) has been tested with the holoenzyme of protein kinase A type I alpha (FIGS. 3 and 4) using a standard photometric assay (Cook, P. F.; Neville, M. E., Jr.; Vrana, K. E.; Hartl, F. T. and Roskoski, R., Jr., Biochemistry 21, 5794-5799 (1982)).
As a control, two boranophosphate analogues with a 2′-O-methyl modification (Rp-2′-O-Me-cAMPB and Sp-2′-O-Me-cAMPB, examples 7 & 8) have been tested by the same type of assay with protein kinase A type I alpha as well.
FIG. 5 depicts the activity overview of four different cyclic boranophosphate analogues with protein kinase A type I alpha holoenzyme. 9108: Sp-2′-O-Me-cAMPB; 9109: Rp-2′-O-Me-cAMPB; 9110: Sp-8-Br-cAMPB; 9111: Rp-8-Br-cAMPB; controls: B 001: Rp-8-Br-cAMPS. Control: cAMP. “Cook Assay” with Holoenzyme RIα.

[3] = tested on: PDE type I from bovine brain; test: Resistance towards phosphodiesterase: incubation with PDE type I from bovine brain, HPLC
Experimental: Activity of the enzyme was checked by hydrolysis of cyclic AMP. Stability was monitored by HPLC (RP-18, 11 Vol.-% propanol-2, 20 mM TEAF buffer, pH 6.8, 1 ml/min., UV 264 nm).

| Substance | HPLC signal area lost [1] [%] | degradation by PDE (PDE 1 from bovine heart) | stability against PDE IV (PDE IV (A4B)) | effect on protein kinase A type I alpha holoenzyme [2] | degradation by PDE [3] |
| --- | --- | --- | --- | --- | --- |
| 8-Bromoadenosine-3′,5′-cyclic boranophosphate, Rp-isomer [Rp-8-Br-cAMPB] | 35 | completely stable | completely stable | agonistic property | – |
| 8-Bromoadenosine-3′,5′-cyclic boranophosphate, Sp-isomer [Sp-8-Br-cAMPB] | 35 | – | – | inhibitory potential | no degradation was detected |
